In ChEMBL document CHEMBL4680194, “Synthesis and biological evaluation of 1,2,4-triazole derivatives as potential neuroprotectant against ischemic brain injury” (Eur J Med Chem, 2020):
Calls of active or inactive are those of the source. No cut-off for these calls is given here.

Experiments:
[1] = target: T1, Nuclear factor erythroid 2-related factor 2 (Rattus norvegicus) (UniProt O54968); assay: Induction of Nrf2 nuclear translocation in rat PC-12 cells assessed as SNP-induced GSH-px level at 2.5 uM incubated for 1 hr followed by SNP stimulation and measured after 24 hrs (reference value: 37.70 +/- 2.88 mU/mg); format: cell-based; conditions: time 25.0 hrs
T1 sequence (whole entry): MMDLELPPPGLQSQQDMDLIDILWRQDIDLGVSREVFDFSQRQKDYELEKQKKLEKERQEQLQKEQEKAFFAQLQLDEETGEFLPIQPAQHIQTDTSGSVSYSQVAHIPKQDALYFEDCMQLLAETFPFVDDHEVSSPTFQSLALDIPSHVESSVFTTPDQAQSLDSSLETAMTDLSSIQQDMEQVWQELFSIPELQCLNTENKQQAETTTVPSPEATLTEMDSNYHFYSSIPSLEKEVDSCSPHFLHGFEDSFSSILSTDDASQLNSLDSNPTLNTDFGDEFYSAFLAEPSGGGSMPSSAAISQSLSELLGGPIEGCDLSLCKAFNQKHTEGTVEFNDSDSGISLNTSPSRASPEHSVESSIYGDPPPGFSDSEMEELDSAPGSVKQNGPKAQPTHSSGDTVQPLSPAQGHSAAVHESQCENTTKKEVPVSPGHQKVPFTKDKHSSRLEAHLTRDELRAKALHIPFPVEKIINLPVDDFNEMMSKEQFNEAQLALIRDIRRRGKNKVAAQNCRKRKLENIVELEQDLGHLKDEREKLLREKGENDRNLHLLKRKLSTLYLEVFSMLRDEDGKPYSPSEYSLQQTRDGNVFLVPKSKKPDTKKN

[2] = target: T1, Nuclear factor erythroid 2-related factor 2 (Rattus norvegicus); assay: Induction of Nrf2 nuclear translocation in rat PC-12 cells assessed as SNP-induced GSH-px level incubated for 1 hr followed by SNP stimulation and measured after 24 hrs; format: cell-based; conditions: dose 2.5-10 µM, time 25.0 hrs
PC-12 [3] = assay: Reversal of LY294002-induced Nrf2 inhibition in rat PC-12 cells at 1.25 to 5 uM incubated for 1 hr followed by LY294002 stimulation and measured after 24 hrs by Western blot analysis; format: functional, cell-based; conditions: dose 1.25-5 µM, time 25.0 hrs
PC-12 [4] = assay: Inhibition of H2O2-induced mitochondrial membrane potential loss in rat PC-12 cells assessed as increase in red fluoresence at 2.5 to 10 uM incubated for 1 hr followed by H2O2 stimulation and measured after 5 hrs by JC-1 staining based fluorescence microscopy; format: functional, cell-based; conditions: dose 2.5-10 µM, time 6.0 hrs
[5] = target: T1, Nuclear factor erythroid 2-related factor 2 (Rattus norvegicus); assay: Induction of Nrf2 nuclear translocation in rat PC-12 cells assessed as SNP-induced GSH-px level at 5 uM incubated for 1 hr followed by SNP stimulation and measured after 24 hrs (reference value: 37.70 +/- 2.88 mU/mg); format: cell-based; conditions: time 25.0 hrs
[6] = target: T1, Nuclear factor erythroid 2-related factor 2 (Rattus norvegicus); assay: Induction of Nrf2 nuclear translocation in rat PC-12 cells assessed as decrease in cytoplasmic Nrf2 level at 1.25 to 5 uM incubated for 24 hrs by Western blot analysis; format: cell-based; conditions: dose 1.25-5 µM
Rattus norvegicus [7] = assay: Neuroprotective activity in Sprague-Dawley rat model of middle cerebral artery occlusion-induced ischemic injury assessed as infarction volume at 3 mg/kg, ip administered TID and measured after 6 hrs by TTC staining based assay (reference value: 28.67 +/- 2.90 %); format: functional
[8] = Half life in Sprague-Dawley rat at 20 mg/kg, po measured upto 24 hrs by LC-MS/MS analysis; format: ADME, organism-based; conditions: in vivo
[9] = Toxicity in […] assessed as body weight at 400 mg/kg, ip observed after immediately (reference value: 24.4 to 28.4 g); format: organism-based; conditions: in vivo
[10] = target: T1, Nuclear factor erythroid 2-related factor 2 (Rattus norvegicus); assay: Induction of Nrf2 nuclear translocation in rat PC-12 cells assessed as H2O2-induced SOD level at 10 uM incubated for 1 hr followed by H2O2 stimulation and measured after 5 hrs (reference value: 29.69 +/- 1.65 U/mg); format: cell-based; conditions: time 6.0 hrs
[11] = Tmax in Sprague-Dawley rat at 2 mg/kg, iv measured upto 24 hrs by LC-MS/MS analysis; format: ADME, organism-based; conditions: in vivo
PC-12 [12] = assay: Cytoprotective activity against H2O2-induced cell death in rat PC-12 cells assessed as increase in cell viability incubated for 1 hr followed by H2O2 stimulation and measured after 5 hrs by LDH assay; format: functional, cell-based; conditions: time 6.0 hrs
Rattus norvegicus [13] = assay: Neuroprotective activity in Sprague-Dawley rat model of middle cerebral artery occlusion-induced ischemic injury assessed as increase in MDA level at 3 to 30 mg/kg, ip administered TID and measured after 24 hrs by ELISA; format: functional, organism-based; conditions: dose 3-30 mg/kg
Rattus norvegicus [14] = assay: Neuroprotective activity in Sprague-Dawley rat model of middle cerebral artery occlusion-induced ischemic injury assessed as improvement in behavioral changes at 3 to 30 mg/kg, ip administered TID and measured after 24 hrs; format: functional, organism-based; conditions: dose 3-30 mg/kg
[15] = target: T1, Nuclear factor erythroid 2-related factor 2 (Rattus norvegicus); assay: Induction of Nrf2 nuclear translocation in rat PC-12 cells assessed as SNP-induced GSH level incubated for 1 hr followed by SNP stimulation and measured after 24 hrs; format: cell-based; conditions: dose 2.5-10 µM, time 25.0 hrs
[16] = target: T1, Nuclear factor erythroid 2-related factor 2 (Rattus norvegicus); assay: Induction of Nrf2 nuclear translocation in rat PC-12 cells assessed as SNP-induced SOD level at 2.5 uM incubated for 1 hr followed by SNP stimulation and measured after 24 hrs (reference value: 23.74 +/- 2.02 U/mg); format: cell-based; conditions: time 25.0 hrs
[17] = target: T1, Nuclear factor erythroid 2-related factor 2 (Rattus norvegicus); assay: Induction of Nrf2 nuclear translocation in rat PC-12 cells assessed as SNP-induced SOD level incubated for 1 hr followed by SNP stimulation and measured after 24 hrs; format: cell-based; conditions: dose 2.5-10 µM, time 25.0 hrs
[18] = target: T1, Nuclear factor erythroid 2-related factor 2 (Rattus norvegicus); assay: Induction of Nrf2 nuclear translocation in rat PC-12 cells assessed as H2O2-induced GSH-px level at 2.5 uM incubated for 1 hr followed by H2O2 stimulation and measured after 5 hrs (reference value: 45.92 +/- 3.64 mU/mg); format: cell-based; conditions: time 6.0 hrs
[19] = AUC (0 to infinity) in Sprague-Dawley rat at 2 mg/kg, iv measured upto 24 hrs by LC-MS/MS analysis; format: ADME, organism-based; design: route intravenous, dose 2 mg/kg, time <=24; conditions: in vivo
Rattus norvegicus [20] = assay: Neuroprotective activity in Sprague-Dawley rat model of middle cerebral artery occlusion-induced ischemic injury assessed as decrease in TNF-alpha level at 3 to 30 mg/kg, ip administered TID and measured after 24 hrs by ELISA; format: functional, organism-based; conditions: dose 3-30 mg/kg
PC-12 [21] = assay: Cytoprotective activity against SNP-induced cell death in rat PC-12 cells assessed as increase in cell viability incubated for 1 hr followed by SNP stimulation and measured after 24 hrs by LDH assay; format: functional, cell-based; conditions: time 25.0 hrs
Rattus norvegicus [22] = assay: Neuroprotective activity in Sprague-Dawley rat model of middle cerebral artery occlusion-induced ischemic injury assessed as decrease in IL-1beta level at 3 to 30 mg/kg, ip administered TID and measured after 24 hrs by ELISA; format: functional, organism-based; conditions: dose 3-30 mg/kg
PC-12 [23] = assay: Cytoprotective activity against SNP-induced cell death in rat PC-12 cells assessed as increase in cell viability at 10 uM incubated for 1 hr followed by SNP stimulation and measured after 24 hrs by MTT assay; format: functional; conditions: time 25 hrs
[24] = Toxicity in […] assessed as body weight at 400 mg/kg, ip measured on day 5 (reference value: 24.4 to 28.4 g); format: organism-based; conditions: in vivo, 120 h, time 5 day

COc1ccc(-c2nc(-c3ccccc3O)n(-c3ccc(S(N)(=O)=O)cc3)n2)c(O)c1
Activity [1]: 42.5 mU/mg
Activity [2]: Dose-dependent effect
Activity (PC-12 [3]): Active
inhibition (PC-12 [4]): Active
Activity [5]: 44.4 mU/mg
Activity [6]: Active
Activity (Rattus norvegicus [7]): 20.52%
half-life [8]: 4.26 h
Activity [9]: 24.6 g
Activity [10]: 41.2 U/mg
Tmax [11]: 4.98 min
Activity (PC-12 [12]): Dose-dependent effect
Activity (Rattus norvegicus [13]): Active
Activity (Rattus norvegicus [14]): Active
Activity [15]: Dose-dependent effect
Activity [16]: 34.6 U/mg
Activity [17]: Dose-dependent effect
Activity [18]: 51 mU/mg
AUC(0-inf) [19]: 2330 ng·h/mL
Activity (Rattus norvegicus [20]): Active
Activity (PC-12 [21]): Dose-dependent effect
Activity (Rattus norvegicus [22]): Active
Activity (PC-12 [23]): 30%
Activity [24]: 24.9 g
